Consider one compound from EP4285905A1, “CABERGOLINE OR A PHARMACEUTICALLY ACCEPTABLE SALT OR SOLVATE THEREOF, FOR USE IN PREVENTION OR DELAY OF POST-PREGNANCY BREAST CANCER IN A FEMALE MAMMAL” (Consejo Superior de Investigaciones Cientificas, priority 2022, dated 2023).

The structures appear in SMILES notation.

Test [1] deals with K14Cre; Brca1^F/F; P53^F/F. Kind of test: Tumour latency and tumour incidence in the Brca1/P53 deficient mouse model. The test is classed as in vivo, mice. The text has this: The study model used was a genetically modified mouse, generated by the group led by Jos Jinkers from the Netherland Cancer Institute and generously donated to our group. It is a conditional double knock-out (KO) for Brca1 and P53 that expresses Cre-recombinase under the promoter of the cytokeratin-14 gene (K14) as a model named: K14Cre; Brca1^F/F; P53^F/F (hereinafter Brca1 or KO). These mice develop mammary tumours (cancers) with a penetrance of 100% (although it depends on whether they develop skin cancer first and must be sacrificed) and a median age of 7 months. They mimic human tumours with BRCA1 mutations, since they are basal-type and lose P53. Since Cre-recombinase under the promoter of the K14 gene is not only expressed in mammary cells, but also in other epithelial cells, these mice develop squamous cell carcinoma-like skin tumors. The cohort of mice used in this study has an FVB/N genetic background. […]

Test [2] deals with Brca1/P53-deficient mice. Kind of test: Quantification of adipose and ductal tissue areas in the breast (hematoxylin-eosin, ImageJ). The test is classed as in vivo. To be noted: for adipose tissue area: vs untreated lactating multiparous mice, P < 0.001. An excerpt:
Subsequently, the same groups of animals indicated were generated and samples were collected from the mammary glands at 1, 3, 7, 30 and 60 days post-gestation (in non-lactating multiparous) or post-weaning (in lactating multiparous, with and without treatment with cabergoline) (N = 5 mice per group at each time studied).
The left inguinal breast of each mouse was embedded in paraffin for further study. Once removed from the animals, the breasts were fixed in 4% paraformaldehyde (Scharlau FO) for 24 hours and, subsequently, they were kept in 70% ethanol at a temperature of 4 °C, until they were processed in the Comparative Molecular Pathology Service of the Salamanca Cancer Research Center. Tissues were dehydrated by three 1-hour incubations in increasing concentrations of ethanol (60%, 80%, and 100%). Three other 1-hour incubations were carried out in xylol, to replace the dehydrating agent with a substance miscible in paraffin. Finally, three other incubations of 1 hour and 20 minutes were carried out with liquid paraffin, after which blocks were made with a mould suitable for the size of the tissue in a paraffin embedding station. When the paraffin blocks were completely cold, 2-µm-thick sections were made using a rotation microtome (Leica RM2255).
Hematoxylin and eosin staining was performed in the Comparative Molecular Pathology Service of the Salamanca Cancer Research Center using a battery of manual staining following the processes: deparaffinization in xylol, rehydration with ethanol at different graduations, hematoxylin and eosin staining, dehydration with ethanol and clearance. Once the process was finished, the samples were mounted by adding a drop of non-aqueous DPX fixative and the coverslip was placed.
Adipose tissue area and ductal area were evaluated using ImageJ free software. The ductal area was defined as the surface occupied by the epithelium of the ducts together with the surrounding fibrous tissue stroma, excluding the area of the tubular lumen. To evaluate the ductal and adipocyte area, 10 photos were taken at 10X magnification of the surface of the mammary gland of each of the study animals, five photos in the distal area and five in the proximal area of the breast. The photos were taken randomly in each of these areas of the samples stained with hematoxylin-eosin, with a Leica DM1000 light microscope. […] In the proximal area, more adipose tissue and less ductal tissue were observed than in the distal area, and vice versa. For this reason, only the values of the distal zone were determined to carry out the analyses.
The quantification was expressed as a percentage of the total area. […]

Turning to `C=CCN1C[C@H](C(=O)N(CCCN(C)C)C(=O)NCC)C[C@@H]2c3cccc4[nH]cc(c34)C[C@H]21` [cabergoline, 1-[(6-allylergolin-8ß-yl)-carbonyl]-1-[3-(dimethylamino)propyl]-3-ethylurea], the tumour latency result in test [1] (single intraperitoneal dose 0.25 mg/Kg at weaning after second lactation, vs pregnancy and lactation group P = 0.019, non-lactation pregnancy group P < 0.0001, nulliparous P < 0.0001) is “greater latency”. In addition, the tumour incidence in test [1] (single intraperitoneal dose 0.25 mg/Kg at weaning, 10 mice out of 37 developed tumour, vs lactating multiparous mice P = 0.0062) worked out at 27.78%. Further, the adipose tissue area result in test [2] (3 days after weaning) and in test [2] (7 days after weaning) was “statistically significant increase in adipose tissue” in each case. Besides, the ductal area result in test [2] (30 days post-lactational involution) is “drastic decrease in ductal area”. For the same compound, in test [2] (60 days post-lactational involution), the “ductal area (epithelial component)” value is recorded as “great reduction of the epithelial component”.
